Data taken from US20220112538A1, “SPECTROSCOPIC METHODS, REAGENTS AND SYSTEMS TO DETECT, IDENTIFY, AND CHARACTERIZE BACTERIA FOR ANTIMICROBIAL SUSCEPTIBLITY” (priority 2020, published 2022).
Converted amounts (≈) assume the structure as drawn. Like-named read-outs stand apart in the source and are kept apart here.

Assays:
Assay type in all cases: cell-based
[1] = system: wild type strain of S. aureus; test: MIC from Rayleigh scattering growth in Cation Adjusted Mueller Hinton Broth, corrected for pathogen concentration; details: for MIC: Staphylococcus aureus
Description: FIG. 21A: Variation of Rayleigh scattering with time for 7 samples containing Cation Adjusted Mueller Hinton Broth (CAMHB), an unknown concentration of a test bacteria (which was identified as S. aureus due to pigment production), and loaded onto 96 well plates at 7 concentrations of the candidate antibiotic Vancomycin, with concentrations starting at 1.25 μg/mL (for Cell 7) and decreasing in steps of 2× for each well down to Cell 1. The data is collected for 8 hours. FIG. 21B: Variation of the fitting parameter a, in the fit equation y=a/[1+exp(−(t−b)/c)], with a non-linear best fit routine is applied to fit this equation to the data depicted on the left. The fitting parameter is plotted against cell#. From this variation, it is estimated that Rayleigh growth becomes negligible at an extrapolated cell # of 4.8, which corresponds to a Vancomycin concentration of 0.19 μg/mL.
As we observe experimentally, the antimicrobial susceptibility metric MIC is a function of pathogen concentration, as depicted in FIG. 19. Thus, estimates for MIC obtained from a test sample that is at a pathogen concentration lower than the concentration of 2×10^8 CFU/mL (or 0.5 McFarland) specified in the CLSI M100 standard will need to be corrected for this variation to maximize concordance between a rapid test MIC and the CLSI standard. Empirically, we find that the slope of the traces depicted in FIG. 19 scales with the absolute magnitude of the estimated MIC, as depicted in FIG. 20. Thus, an algorithm to correct the MIC for pathogen concentration is to use the empirical observed scaling relationship depicted in FIG. 20, along with the pathogen concentration estimated from the methods described in FIG. 18. […] Separately, the time to detection is measured as 161 minutes, and this returns an S. aureus concentration of 7.5×10^6 CFU/mL.
We illustrate this process with one example of a wild type strain of S. aureus tested against Vancomycin in Cation Adjusted Mueller Hinton Broth (CAMHB Himedia labs M1657). With CAMHB, the viability of the bacteria is estimated by plotting the Rayleigh scattering factor versus time, and fitting this to an exponential growth function a/[1+exp(−(t−b)/c)], as illustrated in FIG. 21. The growth factor a is then plotted against antibiotic concentration, and from this profile, the concentration at which a approaches zero is estimated as the nominal MIC at the pathogen concentration. Separately, the pathogen concentration is estimated and the MIC is corrected for the pathogen concentration. […] The CLSI M100 breakpoints for Staphylococcus against Vancomycin are >16 μg/mL for resistant and <2 μg/mL for susceptible. Accordingly, this strain of S. aureus is reported as being susceptible to vancomycin, […]

[2] = system: S. aureus (clinical sample); test: MIC from time required for S. aureus pigment detection versus antibiotic concentration
Description: FIG. 15: Variation of the time required for pigment detection versus antibiotic concentration for tetracycline plotted against antibiotic concentration. The pathogen concentration is estimated at 8.8×10^6 CFU/mL. For antibiotic concentrations of 2 μg/mL, the time to detection is increased by a factor of >2 compared to the baseline value of about 150 minutes for this pathogen concentration. We set this 2× increase as the criterion for MIC˜other criterion can also be used, but will require a different set of corrections for pathogen concentration. With the MIC at the test pathogen concentration, we apply the correction described above, and find that the rapid test MIC correlates with the CLSI M100 MIC, as depicted in FIG. 23.
The second factor that complicates a rapid test for MIC is the presence of multiple pathogens in a polymicrobial sample. For example, a polymicrobial sample that is dominated by Enterococcus but in which the S. aureus is the pathogen of concern, the MIC estimated by examining the growth of Rayleigh scattering can be erroneous because of an incorrect correction for pathogen concentration, and because the Rayleigh scattering is dominated by Enterococcus growth. This issue can be mitigated by one of two ways: (a) by flagging all polymicrobial samples & (b) by focusing the response on a signal associated with the pathogen of interest. For example, using the methods described in Example 5, we detect the S. aureus specific pigments, and characterize the time required for the detection of these pigments as a function of antibiotic concentration. This is illustrated in FIG. 15 for a clinical sample containing […], and the antibiotic tetracycline. From this variation, the MIC is estimated as the minimum antibiotic concentration required to increase the time to detection metric by 2× compared to the time to detection metric observed for the media without any antibiotic (which was 150 minutes in this example). And so, the MIC in this example is log (concentration)=0.3, or a concentration of 2 μg/mL. The concentration of S. aureus estimated from the detection time of 150 minutes (and the methods described in Example 8) is 8.8×10^6 CFU/mL. […] This clinical sample also contained Enterococcus (which was evident after isolating individual colonies on a blood Agar plate), but the method described here focuses the MIC metric on the response of S. aureus.

[3] = system: E. coli 25922; test: Minimum inhibitory concentration from phenol red 560 nm absorbance peak height; details: 1000 CFU/mL E. coli; extrapolated from a linear fit to phenol red peak height
Text: (§1) This example characterizes the response of E. coli 25922 to Gentamicin. Top: The curves illustrate the response of a test solution that includes 1000 CFU/mL E. coli, the Phenol-Red based reagent described in herein, and Gentamicin GM present at concentrations that are depicted in the legend. The Y axis depicts the height of the phenol red peak at 560 nm, normalized to the starting value.
as §1, with “described” for “described in”, “value. Bottom: The normalized peak height at 300 minutes, plotted as a function of GM concentration.” for “value.”
Antimicrobial susceptibility response was characterized. The metabolic activity of the causative pathogen can be suppressed by an effective antimicrobial. Thus, when a candidate antibiotic, present at a test concentration, is combined with the teachings described herein, then we can deduce the effect of that antibiotic on the microorganism. If we combine a series of antibiotic concentrations, then we can deduce the minimum inhibitory concentration. […]

CN[C@H](CC(C)C)C(=O)N[C@H]1C(=O)N[C@@H](CC(N)=O)C(=O)N[C@H]2C(=O)N[C@H]3C(=O)N[C@H](C(=O)N[C@H](C(=O)O)c4cc(O)cc(O)c4-c4cc3ccc4O)[C@H](O)c3ccc(c(Cl)c3)Oc3cc2cc(c3O[C@@H]2O[C@H](CO)[C@@H](O)[C@H](O)[C@H]2O[C@H]2C[C@](C)(N)[C@H](O)[C@H](C)O2)Oc2ccc(cc2Cl)[C@H]1O [Vancomycin]
MIC estimated at the test pathogen concentration (concentration at which Rayleigh growth becomes negligible) ([1]; CAMHB, 8 hours, extrapolated cell # 4.8, S. aureus 7.5×10^6 CFU/mL): 0.19 µg/mL (≈ 0.131 µM)
MIC ([1]; 8 h, read-out: MIC estimated at the test pathogen concentration (concentration at which Rayleigh growth becomes negligible), CAMHB, 8 hours, extrapolated cell # 4.8, S. aureus 7.5×10^6 CFU/mL): 0.192 µg/mL (≈ 0.132 µM)
MIC ([1]; read-out: CLSI M100 MIC at 0.5 McFarland, estimated by correction for pathogen concentration, corrected from 7.5×10^6 CFU/mL to 0.5 McFarland): 0.867 µg/mL (≈ 0.598 µM)
resistant or susceptible status by comparison with CLSI M100 breakpoints ([1]; breakpoints >16 μg/mL resistant, <2 μg/mL susceptible): susceptible

CN(C)[C@@H]1C(O)=C(C(N)=O)C(=O)[C@@]2(O)C(O)=C3C(=O)c4c(O)cccc4[C@@](C)(O)[C@H]3C[C@@H]12 [tetracycline]
MIC (minimum concentration that increases time to detection by 2×) at the test pathogen concentration ([2]; S. aureus 8.8×10^6 CFU/mL): 2 µg/mL (≈ 4.5 µM)
MIC as log (concentration) ([2]; S. aureus 8.8×10^6 CFU/mL): 0.3
MIC ([2]; Staphylococcus aureus, corrected from 8.8×10^6 CFU/mL, read-out: MIC at 0.5 McFarland, estimated by correction for pathogen concentration): 2.51 µg/mL (≈ 5.65 µM)
increase of time to pigment detection compared to baseline (factor) ([2]; antibiotic 2 μg/mL, baseline about 150 minutes, pathogen 8.8×10^6 CFU/mL): > 2

Gentamicin
GM concentration at which the 560 nm peak height does not decrease from the starting value (minimum inhibitory concentration) [3]: 2.03 µg/mL
